The text below walks through data of EP0165970B1, “HAIR GROWTH MODIFICATION” (KASZYNSKI, Edwin G., priority 1983, dated 1985).

In one test the test system is flank organ hair. Briefly: Flank organ hair mass (hair re-growth) after topical application. The conditions noted are these: adult intact male hamsters. In kind it is in vivo. An excerpt: The absence of antagonism of synthemic androgen activity in the practice of our invention can be shown by the topical application of suitable compositions to one of the two flank organs of mature male hamsters. Dose-related decreases in androgen-dependent flank organ hair growth are obtained on the treated side but no statistically significant change occurs in the contralateral, vehicle-treated side. Similar studies have been conducted using female hamsters in which hair growth on the flank organs has been stimulated by the subcutaneous administration of a suitable androgen.
Summarized below are the results of several experiments comparing the efficacy of several compositions in reducing the flank organ hair mass in adult intact male hamsters. In each case, hamsters were treated for 15 days (Monday-Friday) during a 21-day interval. Flank organ hairs were depilated on the first day of treatment and redepilated on the sixth day of treatment. The mass of flank organ hair represents the re-growth during the final 14 days of the 21-day interval. The results for percent inhibition shown below are based upon comparisons between the hair mass values of hairs hervested from treated flank organs of experimental animals and those obtained from vehicle-treated control animals.

Test [1] relates to ornithine decarboxylase (ODC). Briefly: Flank organ ornithine decarboxylase (ODC) activity, in vivo screen for topical antiandrogens. Details: species or system hamsters. The conditions noted are these: for ODC activity in flank organs: applied topically, single agents. The source says: A novel method for screening topical antiandrogens has been developed in which the fluctuations in flank organ activity of the enzyme ornithine decarboxylase (ODC) in response to androgens and antiandrogens is exploited to provide a rapid, in vivo screen for antiandrogens, based on a biochemical parameter specifically related to androgenic stimulation of pilosebaceous target tissues.
A further series of investigations on the androgenic regulation of ODC activity in hamster flank organs has been conducted to test topical antiandrogenic formulations consisting of combination regimens.

[2] abbreviates: unilateral topical application, flank organs of intact (uncastrated) male hamsters.
[3] abbreviates: Experiment III, 500 micrograms per square centimeter.
The mark [4] stands for this setting: topical, androgen stimulated female hamsters.

For `C[C@]12CC[C@H]3[C@@H](CCC4=CC(=O)CC[C@@]43C)[C@@H]1CC[C@@H]2C(=O)O` [4-androstene-3-one-17B- Carboxylic acid], in the test with flank organ hair (Experiment II, 400 micrograms per square centimeter), the “% Inhibition” value is 29%.
On to `CCC[C@]1(O)CC[C@H]2[C@@H]3CCC4=CC(=O)CC[C@]4(C)[C@H]3CC[C@@]21C` [17-α-Propyltestosterone], for which the “ODC activity in flank organs” value in test [1] is “inhibit ODC activity”. Also, in test [1] (setting [2]), the ODC activity result is on record as “selectively decreased ODC activity on treated but not untreated flank organs”. Also, in the test on flank organ hair (Experiment I, 6 micrograms per square centimeter), the “% Inhibition” value amounted to 26%.
As to `C=CC[C@]1(O)CC[C@H]2[C@@H]3CCC4=CC(=O)CC[C@]4(C)[C@H]3CC[C@@]21C` [17-α-allyltestosterone], the “ODC activity in flank organs” value in test [1] is “inhibit ODC activity”. In addition, the ODC activity entry in test [1] (setting [2]) is given as “selectively decreased ODC activity on treated but not untreated flank organs”. Also, the “% Inhibition” value with flank organ hair (Experiment IV, 5 micrograms per square centimeter) was 0%; with flank organ hair (Experiment IV, 20 micrograms per square centimeter) it was 29%; in the test with flank organ hair (Experiment IV, 50 micrograms per square centimeter), 50%; in the test with flank organ hair (Experiment IV, 100 micrograms per square centimeter) it was 50%.
For `CC(=O)O[C@]1(C(C)=O)CC[C@H]2[C@@H]3C=C(Cl)C4=CC(=O)CC[C@]4(C)[C@H]3CC[C@@]21C` [Chlormadione acetate], in test [1], the “ODC activity in flank organs” value is listed as “inhibit ODC activity”. In addition, the “% Inhibition” value in the test with flank organ hair (setting [3]) is given as 45%.
Regarding `CC(=O)O[C@]1(C(C)=O)CC[C@H]2[C@@H]3C=C(Cl)C4=CC(=O)[C@@H]5C[C@@H]5[C@]4(C)[C@H]3CC[C@@]21C` [Cyproterone acetate], the “ODC activity in flank organs” value in test [1] was “inhibit ODC activity”. The ODC activity entry in test [1] (setting [4]) is “inhibited ODC activity”. The “% Inhibition” value in the test on flank organ hair (Experiment I, 500 micrograms per square centimeter) worked out at 26%; in the test with flank organ hair (Experiment II, 50 micrograms per square centimeter), 23%; in the test with flank organ hair (Experiment II, 500 micrograms per square centimeter) it was 38%.
With `CC(=O)[C@H]1CC[C@H]2[C@@H]3CCC4=CC(=O)CC[C@]4(C)[C@H]3CC[C@]12C` [Progesterone], the “ODC activity in flank organs” value in test [1] was “inhibit ODC activity”. Further, the ODC activity entry in test [1] (setting [4]) is on record as “inhibited ODC activity”. In addition, the “% Inhibition” value with flank organ hair (Experiment I, 15 days treatment in 21-day interval, 1000 micrograms per square centimeter) is given as 30%; with flank organ hair (Experiment III, 1000 micrograms per square centimeter) it was 57%; with flank organ hair (Experiment IV, 1000 micrograms per square centimeter), 48%.
On to `CC(=O)S[C@@H]1CC2=CC(=O)CC[C@]2(C)[C@H]2CC[C@@]3(C)[C@@H](CC[C@@]34CCC(=O)O4)[C@H]12` [Spironolactone], for which the “% Inhibition” value in the test on flank organ hair (setting [3]) amounted to 41%.
